Source: ChEMBL document CHEMBL4480418, “Antibacterial activity of indolyl-quinolinium derivatives and study their mode of action” (Bioorg Med Chem, 2019)
Activity calls are given as the source filed them. No cut-off for these calls is given here.

What was measured:
Bacillus subtilis [1] = experiment: Antibacterial activity against Bacillus subtilis 168 measured after 18 hrs by broth microdilution method; format: functional; conditions: subsp. subtilis str. 168, 18 h
Staphylococcus aureus [2] = experiment: Bactericidal activity against penicillin-resistant Staphylococcus aureus ATCC 29213 incubated for 18 hrs followed by replating on TSB agar and measured after 24 hrs by broth microdilution method; format: functional
Staphylococcus aureus [3] = experiment: Bactericidal activity against methicillin-resistant Staphylococcus aureus ATCC BAA-41 incubated for 18 hrs followed by replating on TSB agar and measured after 24 hrs by broth microdilution method; format: functional
[4] = target: T1, Cell division protein FtsZ (Staphylococcus aureus) (UniProt P0A031); experiment: Inhibition of Staphylococcus aureus FtsZ GTPase activity at 4 ug/ml preincubated for 10 mins followed by GTP addition and measured after 30 mins relative to control
T1 sequence (whole entry): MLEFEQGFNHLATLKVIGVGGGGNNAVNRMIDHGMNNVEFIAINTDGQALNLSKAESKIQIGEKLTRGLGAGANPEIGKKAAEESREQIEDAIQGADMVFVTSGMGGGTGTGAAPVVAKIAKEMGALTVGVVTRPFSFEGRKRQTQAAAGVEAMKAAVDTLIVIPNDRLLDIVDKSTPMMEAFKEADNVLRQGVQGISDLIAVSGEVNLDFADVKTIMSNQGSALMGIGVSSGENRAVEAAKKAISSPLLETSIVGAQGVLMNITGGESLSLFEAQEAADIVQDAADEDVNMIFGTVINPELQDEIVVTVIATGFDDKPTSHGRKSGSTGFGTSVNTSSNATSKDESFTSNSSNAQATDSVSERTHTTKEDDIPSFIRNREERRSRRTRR

[5] = target: T1, Cell division protein FtsZ (Staphylococcus aureus); experiment: Inhibition of Staphylococcus aureus FtsZ GTPase activity at 16 ug/ml preincubated for 10 mins followed by GTP addition and measured after 30 mins relative to control
Staphylococcus aureus [6] = experiment: Antimicrobial activity against penicillin-resistant Staphylococcus aureus ATCC 29213 assessed as ratio of MIC after and before 15 serial passages preincubated followed by replating and measured after 24 hrs; format: functional
Staphylococcus aureus [7] = experiment: Ratio of MBC to MIC for penicillin-resistant Staphylococcus aureus ATCC 29213; format: functional
Acinetobacter baumannii = experiment: Antimicrobial activity against multidrug-resistant Acinetobacter baumannii ATCC 19606 measured after 18 hrs by broth microdilution method; format: functional; conditions: ATCC 19606 = CIP 70.34 = JCM 6841, 18 h
Escherichia coli [8] = experiment: Antibacterial activity against FtsZ over-expressing Escherichia coli BL21 measured after 18 hrs by broth microdilution method; format: functional; conditions: BL21, 18 h
Escherichia coli [9] = experiment: Antibacterial activity against Escherichia coli BL21 measured after 18 hrs by broth microdilution method; format: functional; conditions: BL21, 18 h
[10] = target: T1, Cell division protein FtsZ (Staphylococcus aureus); experiment: Inhibition of Staphylococcus aureus FtsZ GTPase activity at 1 ug/ml preincubated for 10 mins followed by GTP addition and measured after 30 mins relative to control
Staphylococcus aureus [11] = experiment: Antimicrobial activity against Staphylococcus aureus ATCC 25923 measured after 18 hrs by broth microdilution method; format: functional; conditions: ATCC 25923, 18 h
[12] = target: T1, Cell division protein FtsZ (Staphylococcus aureus); experiment: Inhibition of Staphylococcus aureus FtsZ GTPase activity preincubated for 10 mins followed by GTP addition and measured after 30 mins
[13] = target: T2, Cell division protein FtsZ (Bacillus subtilis (strain 168)) (UniProt P17865); experiment: Inhibition of cell division function of FtsZ in Bacillus subtilis 168 assessed as increase in cell length at MIC after 4 hrs by FM4-64 dye based confocal microscopic method; conditions: Bacillus subtilis subsp. subtilis str. 168
T2 sequence (whole entry): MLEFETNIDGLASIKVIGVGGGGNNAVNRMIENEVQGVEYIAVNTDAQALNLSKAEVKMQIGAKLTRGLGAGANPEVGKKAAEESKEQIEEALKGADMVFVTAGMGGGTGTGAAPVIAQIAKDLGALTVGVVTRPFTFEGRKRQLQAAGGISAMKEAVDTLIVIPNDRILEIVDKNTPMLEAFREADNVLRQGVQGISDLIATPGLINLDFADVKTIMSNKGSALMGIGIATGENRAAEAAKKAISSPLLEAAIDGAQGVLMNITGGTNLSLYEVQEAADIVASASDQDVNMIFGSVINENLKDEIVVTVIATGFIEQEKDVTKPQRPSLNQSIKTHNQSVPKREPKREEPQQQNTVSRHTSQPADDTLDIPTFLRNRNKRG

Escherichia coli [14] = experiment: Antimicrobial activity against Escherichia coli ATCC 25922 measured after 18 hrs by broth microdilution method; format: functional; conditions: ATCC 25922, 18 h
[15] = target: T1, Cell division protein FtsZ (Staphylococcus aureus); experiment: Inhibition of Staphylococcus aureus FtsZ GTPase activity at 32 ug/ml preincubated for 10 mins followed by GTP addition and measured after 30 mins relative to control
Staphylococcus aureus [16] = experiment: Antimicrobial activity against penicillin-resistant Staphylococcus aureus ATCC 29213 measured after 18 hrs by broth microdilution method; format: functional; conditions: ATCC 29213, 18 h
Enterococcus faecium [17] = experiment: Antimicrobial activity against vancomycin-resistant Enterococcus faecium ATCC 700221 measured after 18 hrs by broth microdilution method; format: functional; conditions: ATCC 700221, 18 h
Staphylococcus aureus [18] = experiment: Antimicrobial activity against methicillin-resistant Staphylococcus aureus ATCC BAA-41 measured after 18 hrs by broth microdilution method; format: functional; conditions: ATCC BAA-41, 18 h
Enterococcus faecium [19] = experiment: Antimicrobial activity against drug-susceptible Enterococcus faecium ATCC 49624 measured after 18 hrs by broth microdilution method; format: functional; conditions: ATCC 49624, 18 h
Pseudomonas aeruginosa = experiment: Antimicrobial activity against multidrug-resistant Pseudomonas aeruginosa ATCC BAA-2108 measured after 18 hrs by broth microdilution method; format: functional; conditions: ATCC BAA-2108, 18 h
Staphylococcus aureus [20] = experiment: Ratio of MBC to MIC for methicillin-resistant Staphylococcus aureus ATCC BAA-41; format: functional
Enterobacter cloacae = experiment: Antimicrobial activity against Ampc beta-lactamase expressing Enterobacter cloacae ATCC BAA-1143 measured after 18 hrs by broth microdilution method; format: functional; conditions: ATCC BAA-1143, 18 h
Escherichia coli [21] = experiment: Antimicrobial activity against NDM1 beta -lactamse expressing Escherichia coli ATCC BAA-2469 measured after 18 hrs by broth microdilution method; format: functional; conditions: ATCC BAA-2469, 18 h
Staphylococcus aureus [22] = experiment: Antimicrobial activity against methicillin-resistant Staphylococcus aureus ATCC 43300 measured after 18 hrs by broth microdilution method; format: functional; conditions: ATCC 43300, 18 h
[23] = target: T1, Cell division protein FtsZ (Staphylococcus aureus); experiment: Inhibition of Staphylococcus aureus FtsZ GTPase activity at 64 ug/ml preincubated for 10 mins followed by GTP addition and measured after 30 mins relative to control
Klebsiella pneumoniae = experiment: Antimicrobial activity against NDM1 beta-lactamase expressing Klebsiella pneumoniae ATCC BAA-2470 measured after 18 hrs by broth microdilution method; format: functional; conditions: ATCC BAA-2470, 18 h
Enterococcus faecalis = experiment: Antimicrobial activity against Enterococcus faecalis ATCC 29212 measured after 18 hrs by broth microdilution method; format: functional; conditions: ATCC 29212, 18 h
[24] = target: T1, Cell division protein FtsZ (Staphylococcus aureus); experiment: Inhibition of recombinant Staphylococcus aureus FtsZ polymerization by 90 degree light scattering-based fluorescence spectrometric analysis
Bacillus subtilis [25] = experiment: Disruption of membrane integrity in Bacillus subtilis 168 at MIC after 4 hrs by FM4-64 dye based confocal microscopic method; format: organism-based, subsp. subtilis str. 168
[26] = target: T2, Cell division protein FtsZ (Bacillus subtilis (strain 168)); experiment: Inhibition of cell division function of FtsZ in Bacillus subtilis 168 assessed as cell length at MIC after 4 hrs by FM4-64 dye based confocal microscopic method; conditions: Bacillus subtilis subsp. subtilis str. 168
Staphylococcus aureus [27] = experiment: Bactericidal activity against methicillin-resistant Staphylococcus aureus ATCC BAA-41 assessed as reduction in bacterial load at 2 to 4 times MIC incubated for 4 hrs followed by replating on MH agar and measured after 24 hrs by time-kill assay; format: functional, organism-based
Staphylococcus aureus [28] = experiment: Bactericidal activity against methicillin-resistant Staphylococcus aureus ATCC BAA-41 assessed as reduction in bacterial load incubated for 1 to 24 hrs followed by replating on MH agar and measured after 24 hrs by time-kill assay; format: functional, organism-based
[29] = target: T1, Cell division protein FtsZ (Staphylococcus aureus); experiment: Inhibition of recombinant Staphylococcus aureus FtsZ polymerization at 0.4 to 1.2 ug/ml by 90 degree light scattering-based fluorescence spectrometric analysis; conditions: TDE = time-dependent effect
Staphylococcus aureus [30] = experiment: Bactericidal activity against methicillin-resistant Staphylococcus aureus ATCC BAA-41 assessed as bacterial load at 1 to 4 times MIC incubated for 24 hrs followed by replating on MH agar and measured after 24 hrs by time-kill assay; format: functional

Row | Structure (SMILES) | MIC (Bacillus subtilis [1]) [µg/mL] | MBC (Staphylococcus aureus [2]) [µg/mL] | MBC (Staphylococcus aureus [3]) [µg/mL] | inhibition [4] [%] | inhibition [5] [%] | Ratio (Staphylococcus aureus [6]) | Ratio (Staphylococcus aureus [7]) | MIC (Acinetobacter baumannii) [µg/mL] | MIC (Escherichia coli [8]) [µg/mL] | MIC (Escherichia coli [9]) [µg/mL] | inhibition [10] [%] | MIC (Staphylococcus aureus [11]) [µg/mL] | inhibition [12] | MIC (Escherichia coli [14]) [µg/mL] | inhibition [15] [%] | MIC (Staphylococcus aureus [16]) [µg/mL] | MIC (Enterococcus faecium [17]) [µg/mL] | MIC (Staphylococcus aureus [18]) [µg/mL] | MIC (Enterococcus faecium [19]) [µg/mL] | MIC (Pseudomonas aeruginosa) [µg/mL] | also measured
1 | C[n+]1c(/C=C/c2c[nH]c3ccccc23)cc(N2CCCCC2)c2ccccc21.[I-] | 4 | 2 | 4 | 27.8 | 31.8 | 4 | 2 | 16 | 16 | 8 | 13.6 | 2 | Dose-dependent effect | 8 | 34.3 | 1 | 4 | 2 | 2 | > 64 | inhibition [13]: Active; Ratio (Staphylococcus aureus [20]): 2; MIC (Enterobacter cloacae): > 64 µg/mL; MIC (Escherichia coli [21]): 16 µg/mL; MIC (Staphylococcus aureus [22]): 4 µg/mL; inhibition [23]: 41.9%; MIC (Klebsiella pneumoniae): > 64 µg/mL; MIC (Enterococcus faecalis): 4 µg/mL
2 | C[n+]1c(/C=C/c2cc3ccccc3[nH]2)cc(N2CCCCC2)c2ccccc21.[I-] | 4 | 2 | 4 | 30.2 | 40.8 | 4 | 2 | 32 | 32 | 8 | 17.9 | 1 | Dose-dependent effect | 16 | 48.3 | 1 | 4 | 2 | 2 | > 64 | inhibition [24]: Dose-dependent effect; Activity (Bacillus subtilis [25]): Non-Toxic; Activity [26]: 70 to 130 µm; Activity (Staphylococcus aureus [27]): Active; Activity (Staphylococcus aureus [28]): Dose-dependent effect; Ratio (Staphylococcus aureus [20]): 2; MIC (Enterobacter cloacae): > 64 µg/mL; MIC (Escherichia coli [21]): 16 µg/mL; MIC (Staphylococcus aureus [22]): 2 µg/mL; inhibition [23]: 52.1%; MIC (Klebsiella pneumoniae): > 64 µg/mL; MIC (Enterococcus faecalis): 4 µg/mL; inhibition [29]: Tde; Activity (Staphylococcus aureus [30]): 1 ×10³ CFU/ml
